This note sets out measurements from PMC8954508, “α-Glucosidase and Bacterial β-Glucuronidase Inhibitors from the Stems of Schisandra sphaerandra Staph” (Pharmaceuticals, 2022).

Where two headings read alike, the source gives them in different places.

Common to all, as to type: biochemical
Experiment [1] addresses T1, bacterial β-glucuronidase (BGUS) (Escherichia coli, UniProt P05804). As to the kind of experiment: BGUS (β-glucuronidase) inhibitory assay. Particulars: in vitro; for IC50: means ± SD. The procedure:
(§1) The AGS [23, 24, 25, 26] and BGUS [27] inhibitory activities were evaluated by the methods reported in the literature, respectively.

For experiment [2], the target named is T2, α-Glucosidase (AGS) (Saccharomyces cerevisiae, UniProt P53341). Briefly: Inhibition kinetics against AGS (Lineweaver–Burk plots). Particulars: for Ki: AGS, secondary plot of slope versus [I], read-out: Ki (inhibition constant of the enzyme); for mode of inhibition against AGS: Lineweaver–Burk plots. The procedure: (§2) The mode of inhibition for the active compounds was determined by the Lineweaver–Burk plot fitted by GraphPad Prism 8.0 software. The Km value and the Vmax value were obtained from the slope and Y-axis intercept of the Lineweaver–Burk plot based on the following equation:(1) Vmax=1/Y−intercept (2) Km=slope× Vmax
T2 sequence (P53341 whole entry): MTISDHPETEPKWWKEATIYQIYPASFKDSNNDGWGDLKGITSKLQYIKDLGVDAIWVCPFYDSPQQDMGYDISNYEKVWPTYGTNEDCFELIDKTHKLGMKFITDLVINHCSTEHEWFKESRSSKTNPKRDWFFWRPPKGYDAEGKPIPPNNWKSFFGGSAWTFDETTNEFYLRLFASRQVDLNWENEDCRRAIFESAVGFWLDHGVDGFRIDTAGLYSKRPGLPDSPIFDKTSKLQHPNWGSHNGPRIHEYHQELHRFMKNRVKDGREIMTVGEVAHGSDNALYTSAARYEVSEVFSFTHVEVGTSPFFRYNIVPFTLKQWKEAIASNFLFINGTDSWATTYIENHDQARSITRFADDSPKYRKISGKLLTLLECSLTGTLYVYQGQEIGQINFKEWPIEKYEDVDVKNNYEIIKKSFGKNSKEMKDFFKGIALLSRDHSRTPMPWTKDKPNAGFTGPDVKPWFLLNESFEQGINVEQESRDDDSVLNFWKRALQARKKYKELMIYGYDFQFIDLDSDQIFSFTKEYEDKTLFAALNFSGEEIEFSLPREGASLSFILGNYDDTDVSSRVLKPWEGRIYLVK
(§3) The Ki and Ki’ values were available by secondary plotting of the slope and Y-intercept on the Lineweaver–Burk plot versus the inhibitor [I] through the following equations:(3) Slope=Km/Vmax+Km[I]/VmaxKi (4) Y−intercept=1/Vmax+[I]/VmaxKi′

The target in experiment [3] is T1, bacterial β-glucuronidase (BGUS). As to the kind of experiment: Inhibition kinetics against BGUS (Lineweaver–Burk plots). Here is the method: as §2, §3
Experiment [4] has as its target T2, α-Glucosidase (AGS). As to the kind of experiment: AGS (α-glucosidase) inhibitory assay. Here is the method: as §1
[5] abbreviates: in vitro, means ± SD, read-out: IC50 α-Glucosidase.

T1 sequence (P05804 whole entry): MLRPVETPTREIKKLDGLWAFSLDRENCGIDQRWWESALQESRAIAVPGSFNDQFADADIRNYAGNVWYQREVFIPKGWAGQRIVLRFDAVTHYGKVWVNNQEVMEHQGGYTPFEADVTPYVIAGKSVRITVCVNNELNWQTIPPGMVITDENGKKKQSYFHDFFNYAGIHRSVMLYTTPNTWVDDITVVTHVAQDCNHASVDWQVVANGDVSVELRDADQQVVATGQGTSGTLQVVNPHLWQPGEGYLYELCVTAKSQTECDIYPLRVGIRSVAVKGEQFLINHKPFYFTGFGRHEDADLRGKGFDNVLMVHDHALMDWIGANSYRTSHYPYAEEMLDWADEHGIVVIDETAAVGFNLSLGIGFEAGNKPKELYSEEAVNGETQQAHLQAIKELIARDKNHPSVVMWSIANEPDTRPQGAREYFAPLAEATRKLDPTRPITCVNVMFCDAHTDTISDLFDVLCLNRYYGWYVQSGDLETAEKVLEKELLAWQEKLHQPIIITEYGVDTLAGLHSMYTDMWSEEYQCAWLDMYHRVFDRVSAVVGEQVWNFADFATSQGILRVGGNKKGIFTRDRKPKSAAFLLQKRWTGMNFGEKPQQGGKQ

As a reminder, the IC50 is the concentration that inhibits the measured activity by half. Compound `O=C(O)[C@@H](O)[C@H]1OC(=O)[C@H](O)[C@H]1O` [DSL, D-Saccharic 1,4-lactone, reference compound] registered an IC50 in experiment [1] of 56.9 ± 1.57 µM.

In general, Ki refers to the dissociation constant of the complex between target and ligand, obtained from inhibition or displacement. Turning to `CC1=CCC(C(C)C2CCC3(C)C4CCC5C(C)(C)OC(=O)C=CC56CC46CCC23C)OC1=O` (stereo not shown) [Compound 3, schisanlactone B], in experiment [2], the Ki came out at 10.5 µM and the “mode of inhibition against AGS” value is recorded as “mixed-type inhibitors”. In experiment [1], this compound yielded an IC50 of 14.7 ± 0.1 µM. In experiment [3], the “mode of inhibition against BGUS” value is “mixed-type inhibitor”. Also, the IC50 in experiment [4] (setting [5]) was found to be 29.5 ± 0.7 µM.

On to `CC(=O)OC1CC2=C(CCC3C(=C2)C=CC(=O)OC3(C)C)C2(C)CCC(C(C)C3CC=C(C)C(=O)O3)C12C` (stereo not shown) [Compound 1, Sphaerandralide A], for which, in experiment [2], the Ki was 35.8 µM and the “mode of inhibition against AGS” value was “mixed-type inhibitors”. In experiment [4], this compound came in with an IC50 of 61.5 ± 1.75 µM.

`C=C(C)[C@@H]1CC[C@@H]2[C@]3(CC[C@]4(C)[C@@H]([C@H](C)CC/C=C(/C)C(=O)O)CC[C@@]24C)C[C@]13CCC(=O)OC` [Compound 4, 3,4-seco-(24Z)-cycloart-4(28),24-diene-3,26-dioic-3-methyl ester]: in experiment [2], the Ki is 7.97 µM and the “mode of inhibition against AGS” value is recorded as “competitive inhibitors”. Besides, in experiment [1], the “BGUS inhibitory activity (in words)” value is reported as “weak activity” and the IC50 worked out at 155 ± 4.68 µM. Also, the IC50 in experiment [4] (setting [5]) amounted to 14.1 ± 0.29 µM.

For the compound `C=C(C)[C@@H]1CC[C@@H]2[C@]3(CC[C@]4(C)C(=O)CC[C@@]24C)C[C@]13CCC(=O)OC` [Compound 5, schiglausin L], the “mode of inhibition against AGS” value in experiment [2] is “could not be well defined”. For the same compound, in experiment [4] (setting [5]), the IC50 turned out to be 42.9 ± 1.04 µM.
